Source: patent US10253039B2, “Inhibitors of bacterial DNA gyrase with efficacy against gram-negative bacteria” (priority 2014, dated 2019)
Converted amounts (≈) assume the structure as drawn. Read-outs that look alike come from different tables or passages of the source.

Assays:
Assay type in all cases: cell-based
E. coli BW25113 = test: MIC, microdilution in 96-well plates; conditions: Escherichia coli, read-out: MIC
Outline: (§1)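 Broth microdilution per CLSI guidance: each strain was diluted 1:10000 from a growing subculture into Luria-Bertani medium, and compound was serially diluted 2-fold in triplicate alongside a DMSO column. Plates were shaken at 37° C. for 16-18 hours; MIC is the lowest concentration showing no visible turbidity.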

Edwardsiella tarda = test: MIC, microdilution in 96-well plates
Outline: as §1

E. coli JW5503 (deltolC) = test: MIC, 20-strain panel; conditions: Escherichia coli
Outline: as §1

E. coli MG1655 = test: MIC, 20-strain panel; conditions: Escherichia coli, read-out: MIC
Outline: as §1

[1] = test system: Klebsiella pneumoniae subsp. pneumoniae; test: MIC, 20-strain panel
Outline: as §1

[2] = test system: Salmonella enterica subsp. enterica typhimurium; test: MIC, 20-strain panel
Outline: as §1

Shigella flexneri = test: MIC, 20-strain panel
Outline: as §1

[3] = test system: Staphylococcus aureus subsp. aureus; test: MIC, 20-strain panel; conditions: read-out: MIC
Outline: as §1

[4] = test system: Staphylococcus epidermidis; test: MIC, 20-strain panel
Outline: as §1

[5] = test system: Staphylococcus saprophyticus subsp. saprophyticus; test: MIC, 20-strain panel
Outline: as §1

Streptococcus agalactiae = test: MIC, 20-strain panel
Outline: as §1

Streptococcus pyogenes = test: MIC, 20-strain panel
Outline: as §1

[6] = E: Klebsiella pneumoniae subsp. pneumoniae
[7] = F: Salmonella enterica subsp. enterica Typhimurium
[8] = H: Staphylococcus aureus subsp. aureus
[9] = Klebsiella pneumoniae subsp. pneumoniae
[10] = Salmonella enterica subsp. enterica Typhimurium
[11] = Staphylococcus aureus subsp. aureus

Compound	MIC (E. coli BW25113; BW25113, B: E. coli BW25113) [µg/mL]	MIC (Edwardsiella tarda; D: Edwardsiella tarda) [µg/mL]	MIC (E. coli JW5503 (deltolC); C: E. coli JW5503 (deltolC)) [µg/mL]	MIC (E. coli MG1655; MG1655, A: E. coli MG1655) [µg/mL]	MIC [1, 6] [µg/mL]	MIC [2, 7] [µg/mL]	MIC (Shigella flexneri; G: Shigella flexneri) [µg/mL]	MIC [3, 8] [µg/mL]	MIC [4] [µg/mL]	MIC [5] [µg/mL]	MIC (Streptococcus agalactiae) [µg/mL]	MIC (Streptococcus pyogenes) [µg/mL]	MIC (E. coli BW25113; BW25113, E. coli BW25113) [µg/mL]	MIC (Edwardsiella tarda) [µg/mL]	MIC (E. coli JW5503 (deltolC); E. coli JW5503 (deltolC)) [µg/mL]	MIC (E. coli MG1655; MG1655, E. coli MG1655) [µg/mL]	MIC [1, 9] [µg/mL]	MIC [2, 10] [µg/mL]	MIC (Shigella flexneri) [µg/mL]	MIC [3, 11] [µg/mL]
Cc1ccc(S(C)(=O)=O)cc1S(=O)(=O)N[C@@H]1CCN(Cc2ccc(OC3CC3)cc2)C1 [Compound 79]	> 8	> 8	> 8	> 8	> 8	> 8	> 8	> 8	> 8	> 8	> 8	> 8	–	–	–	–	–	–	–	–
CC(C)Oc1ccc(CN2CC[C@@H](NS(=O)(=O)c3cnc4ccsc4c3)C2)cc1 [Compound 164]	–	–	–	–	–	–	–	–	> 8	> 8	> 8	> 8	> 8	> 8	> 8	> 8	> 8	> 8	> 8	> 8
CC(C)(C)Oc1ccc(CN2CC[C@@H](NS(=O)(=O)c3cccc(OC(F)(F)F)c3)C2)cc1 [Compound 26]	> 8	> 8	0.5 (≈ 1.06 µM)	> 8	> 8	> 8	> 8	> 8	> 8	> 8	> 8	> 8	–	–	–	–	–	–	–	–
O=S(=O)(N[C@@H]1CCN(Cc2nc(-c3ccccc3)cs2)C1)c1cccc(C(F)(F)F)c1 [Compound 173]	–	–	–	–	–	–	–	–	> 8	> 8	> 8	> 8	> 8	> 8	> 8	> 8	> 8	> 8	> 8	> 8
N#Cc1cccc(S(=O)(=O)N[C@@H]2CCN(Cc3ccc(OC4CCC4)cc3)C2)c1 [Compound 109]	> 8	> 8	0.5 (≈ 1.21 µM)	> 8	> 8	8 (≈ 19.4 µM)	> 8	> 8	> 8	> 8	> 8	> 8	–	–	–	–	–	–	–	–
CC(C)Oc1ccc(CN2CC[C@@H](NS(=O)(=O)c3cc(F)cc(C(F)(F)F)c3)C2)cc1 [Compound 78]	> 8	> 8	~8 (≈ 17.4 µM)	> 8	> 8	> 8	> 8	> 8	> 8	> 8	> 8	> 8	–	–	–	–	–	–	–	–
CC(C)Oc1ccc(CN2CC[C@@H](NS(=O)(=O)c3cccnc3)C2)cc1 [Compound 167]	–	–	–	–	–	–	–	–	> 8	> 8	> 8	> 8	> 8	> 8	> 8	> 8	> 8	> 8	> 8	> 8
Cc1nn(C)c2ncc(S(=O)(=O)N[C@@H]3CCN(Cc4ccc(OC(C)C)cc4)C3)cc12 [Compound 123]	> 8	> 8	> 8	> 8	> 8	> 8	> 8	> 8	> 8	> 8	> 8	> 8	–	–	–	–	–	–	–	–
Cc1c(CN2CC[C@@H](NS(=O)(=O)c3cccc(OC(F)(F)F)c3)C2)cnn1-c1ccccc1 [Compound 144]	–	–	–	–	–	–	–	–	> 8	> 8	> 8	> 8	> 8	> 8	8 (≈ 16.6 µM)	> 8	> 8	> 8	> 8	> 8
